Measurements as given in ChEMBL document CHEMBL1141827, “A glycosyl analogue of diacylglycerol and other antiinflammatory constituents from Inula viscosa” (1999).

Experiments:
Type in all cases: functional
[1] = system: Mus musculus; experiment: Antiinflammatory activity against Swiss mouse assessed as inhibition of TPA-induced edema at 0.5 mg/ear applied simultaneously with TPA measured after 4 hrs
[2] = system: Mus musculus; experiment: Antiinflammatory activity against Swiss mouse assessed as inhibition of arachidonic acid-induced edema at 0.5 mg/ear applied 30 mins before arachidonic acid challenge measured after 1 hr
[3] = system: Mus musculus; experiment: Antiinflammatory activity against Swiss mouse chronic dermatitis model assessed as inhibition of TPA-induced edema at 0.5 mg/ear applied twice daily for 4 days measured after 6 hrs
[4] = species on record: Mus musculus; experiment: Antiinflammatory activity against Swiss mouse chronic dermatitis model assessed as inhibition of TPA-induced tissue myeloperoxidase activity at 0.5 mg/ear applied twice daily for 4 days measured after 6 hrs
[5] = system: Mus musculus; experiment: Antiinflammatory activity against Swiss mouse assessed as inhibition of carrageenan-induced paw volume at 100 mg/kg, po administered 1 hr prior to carrageenan challenge measured after 1 hr
[6] = system: Mus musculus; experiment: Antiinflammatory activity against Swiss mouse assessed as inhibition of carrageenan-induced paw volume at 100 mg/kg, po administered 1 hr prior to carrageenan challenge measured after 3 hrs
[7] = system: Mus musculus; experiment: Antiinflammatory activity against Swiss mouse assessed as inhibition of carrageenan-induced paw volume at 100 mg/kg, po administered 1 hr prior to carrageenan challenge measured after 5 hrs

**Q.** For `COc1cc(O)c2c(c1)O[C@H](c1ccc(O)cc1)[C@@H](O)C2=O`, which “inhibition (INH)” value [1] is on record?
**A.** The value was 78%.

**Q.** What about the “inhibition (INH)” value [2] of the same molecule?
**A.** The value was 3%.

**Q.** Which results are given for `COc1cc(O)c2c(c1)O[C@H](c1ccc(O)c(O)c1)[C@@H](OC(C)=O)C2=O`?
**A.** inhibition (INH) [1]: 83%; inhibition (INH) [2]: -1%

**Q.** Which “inhibition (INH)” value [3] does the source give for `C[C@@H]1C[C@H]2[C@@H]3CCC4=CC(=O)C=C[C@]4(C)[C@@]3(F)[C@@H](O)C[C@]2(C)[C@@]1(O)C(=O)CO` [DEXAMETHASONE] here?
**A.** The value was 92%.

**Q.** And the “inhibition (INH)” value [4]?
**A.** The value was 92%.

**Q.** Which “inhibition (INH)” value [1] does the source give for `C=C(C(=O)O)[C@@H]1CC[C@@]2(C)CCC[C@@](C)(O)[C@@H]2C1` [ILICIC ACID] here?
**A.** The value was 72%.

**Q.** And the “inhibition (INH)” value [2]?
**A.** The value was 18%.

**Q.** And the inhibition in vivo at 100 mg/kg [5]?
**A.** The inhibition in vivo at 100 mg/kg was 5%.

**Q.** What about the inhibition in vivo at 100 mg/kg [6] of the same molecule?
**A.** Its inhibition in vivo at 100 mg/kg is 32%.

**Q.** And the inhibition in vivo at 100 mg/kg [7]?
**A.** Its inhibition in vivo at 100 mg/kg is 30%.

**Q.** What about the “inhibition (INH)” value [3] of the same molecule?
**A.** The value was 78%.

**Q.** And the “inhibition (INH)” value [4]?
**A.** Its value is 82%.

**Q.** Which “inhibition (INH)” value [1] does the source give for `COc1ccc2c(c1)c(CC(=O)O)c(C)n2C(=O)c1ccc(Cl)cc1` [INDOMETHACIN] here?
**A.** The value was 91%.

**Q.** What does the source list for `CC/C=C\C/C=C\C/C=C\CCCCCCCC(=O)OC(COC(=O)CCCCCCCCCCCCCCC)CO[C@H]1O[C@@H](CO[C@H]2O[C@H](CO)[C@H](O)[C@H](O)[C@H]2O)[C@@H](O)[C@@H](O)[C@@H]1O` (some centres undefined) [INUGALACTOLIPID A]?
**A.** inhibition (INH) [1]: 48%; inhibition (INH) [2]: 5%; inhibition in vivo at 100 mg/kg [5]: -16%; inhibition in vivo at 100 mg/kg [6]: 10%; inhibition in vivo at 100 mg/kg [7]: 5%; inhibition (INH) [3]: 97%; inhibition (INH) [4]: 84%

**Q.** Which “inhibition (INH)” value [1] does the source give for `C=C1C(=O)O[C@H]2CC(=C)[C@H]3CC[C@@](C)(O)[C@@H]3C[C@H]12` [INUVISCOLIDE] here?
**A.** Its value is 90%.

**Q.** And the “inhibition (INH)” value [2]?
**A.** The value was -16%.

**Q.** Which “inhibition (INH)” value [2] does the source give for `O=C1CCN(c2ccccc2)N1` [PHENIDONE] here?
**A.** The value was 51%.

**Q.** With `CCCCC1C(=O)N(c2ccccc2)N(c2ccccc2)C1=O` [PHENYLBUTAZONE] as the molecule, how does the inhibition in vivo at 100 mg/kg [5] read?
**A.** Its inhibition in vivo at 100 mg/kg is 54%.

**Q.** What about the inhibition in vivo at 100 mg/kg [6] of the same molecule?
**A.** The inhibition in vivo at 100 mg/kg was 58%.

**Q.** What about the inhibition in vivo at 100 mg/kg [7] of the same molecule?
**A.** The inhibition in vivo at 100 mg/kg was 43%.

**Q.** How did the “inhibition (INH)” value [1] turn out when `COc1cc(O)c2c(=O)c(O)c(-c3ccc(O)cc3)oc2c1` [RHAMNOCITRIN] was run?
**A.** Its value is 78%.

**Q.** What about the “inhibition (INH)” value [2] of the same molecule?
**A.** Its value is 6%.
